Data from patent US11498899B2, “Nitrone herbicides” (FMC Corporation, priority 2016, dated 2022).

What was measured:
[1] = tested on: barnyardgrass (Echinochloa crus-galli); test: Test A preemergence, visual injury rating 0-100 (0 no effect, 100 complete control); format: in vivo; conditions: for Barnyardgrass plant response rating (0 to 100 scale): 125 g ai/ha; for Barnyardgrass plant response rating: 500 g ai/ha, 0 to 100 scale
Source text: (§1) Seeds of plant species selected from barnyardgrass (Echinochloa crus-galli), kochia (Kochia scoparia), ragweed (common ragweed, Ambrosia elatior), ryegrass, Italian (Italian ryegrass, Lolium multiflorum), foxtail, giant (giant foxtail, Setaria faberii), foxtail, green (green foxtail, Setaria viridis), and pigweed (Amaranthus retroflexus) were planted into a blend of loam soil and sand and treated preemergence with a directed soil spray using test chemicals formulated in a non-phytotoxic solvent mixture which included a surfactant.
(§2) At the same time, plants selected from these weed species and also wheat (Triticum aestivum), corn (Zea mays), blackgrass (Alopecurus myosuroides), and galium (catchweed bedstraw, Galium aparine) were planted in pots containing the same blend of loam soil and sand and treated with postemergence applications of test chemicals formulated in the same manner. Plants ranged in height from 2 to 10 cm and were in the one- to two-leaf stage for the postemergence treatment. Treated plants and untreated controls were maintained in a greenhouse for approximately 10 days, after which time all treated plants were compared to untreated controls and visually evaluated for injury. […] A dash (-) response means no test result.

[2] = tested on: foxtail, giant (giant foxtail, Setaria faberii); test: Test A preemergence, visual injury rating 0-100; format: in vivo; conditions: for Foxtail, Giant plant response rating (0 to 100 scale): 125 g ai/ha; for Foxtail, Giant plant response rating: 500 g ai/ha, 0 to 100 scale
Source text: as §1, §2

kochia (Kochia scoparia) [3] = test: Test A preemergence, visual injury rating 0-100; format: in vivo; conditions: for Kochia plant response rating (0 to 100 scale): 125 g ai/ha; for Kochia plant response rating: 500 g ai/ha, 0 to 100 scale
Source text: as §1, §2

[4] = tested on: pigweed (Amaranthus retroflexus); test: Test A preemergence, visual injury rating 0-100; format: in vivo; conditions: for Pigweed plant response rating (0 to 100 scale): 125 g ai/ha; for Pigweed plant response rating: 500 g ai/ha, 0 to 100 scale
Source text: as §1, §2

[5] = tested on: ragweed (common ragweed, Ambrosia elatior); test: Test A preemergence, visual injury rating 0-100; format: in vivo; conditions: for Ragweed plant response rating (0 to 100 scale): 125 g ai/ha; for Ragweed plant response rating: 500 g ai/ha, 0 to 100 scale
Source text: as §1, §2

[6] = tested on: ryegrass, Italian (Italian ryegrass, Lolium multiflorum); test: Test A preemergence, visual injury rating 0-100; format: in vivo; conditions: for Ryegrass, Italian plant response rating (0 to 100 scale): 125 g ai/ha; for Ryegrass, Italian plant response rating: 500 g ai/ha, 0 to 100 scale
Source text: as §1, §2

[7] = tested on: barnyardgrass (Echinochloa crus-galli); test: Test A postemergence, visual injury rating 0-100; format: in vivo; conditions: 0 to 100 scale
Source text: as §1, §2

[8] = tested on: blackgrass (Alopecurus myosuroides); test: Test A postemergence, visual injury rating 0-100; format: in vivo; conditions: 0 to 100 scale
Source text: as §1, §2

corn (Zea mays) = test: Test A postemergence, visual injury rating 0-100; format: in vivo; conditions: 0 to 100 scale
Source text: as §1, §2

[9] = tested on: foxtail, giant (giant foxtail, Setaria faberii); test: Test A postemergence, visual injury rating 0-100; format: in vivo; conditions: 0 to 100 scale
Source text: as §1, §2

[10] = tested on: galium (catchweed bedstraw, Galium aparine); test: Test A postemergence, visual injury rating 0-100; format: in vivo; conditions: 0 to 100 scale
Source text: as §1, §2

kochia (Kochia scoparia) [11] = test: Test A postemergence, visual injury rating 0-100; format: in vivo; conditions: 0 to 100 scale
Source text: as §1, §2

[12] = tested on: pigweed (Amaranthus retroflexus); test: Test A postemergence, visual injury rating 0-100; format: in vivo; conditions: 0 to 100 scale
Source text: as §1, §2

[13] = tested on: ragweed (common ragweed, Ambrosia elatior); test: Test A postemergence, visual injury rating 0-100; format: in vivo; conditions: 0 to 100 scale
Source text: as §1, §2

[14] = tested on: ryegrass, Italian (Italian ryegrass, Lolium multiflorum); test: Test A postemergence, visual injury rating 0-100; format: in vivo; conditions: 0 to 100 scale
Source text: as §1, §2

[15] = tested on: wheat (Triticum aestivum); test: Test A postemergence, visual injury rating 0-100; format: in vivo; conditions: 0 to 100 scale
Source text: as §1, §2

[16] = tested on: ducksalad (Heteranthera limosa); test: Test B flooded paddy test, visual rating 0-100; conditions: Flood, 250 g ai/ha, applied to paddy water, rated after 13 to 15 days
[17] = tested on: barnyardgrass (Echinochloa crus-galli); test: Test B flooded paddy test, visual rating 0-100; conditions: Flood, 250 g ai/ha, applied to paddy water, rated after 13 to 15 days
rice (Oryza sativa) = test: Test B flooded paddy test, visual rating 0-100 (0 no effect, 100 complete control); conditions: Flood, 250 g ai/ha, applied to paddy water, rated after 13 to 15 days

Row | SMILES | Barnyardgrass plant response rating (0 to 100 scale) [1] | Barnyardgrass plant response rating [1] | Foxtail, Giant plant response rating (0 to 100 scale) [2] | Foxtail, Giant plant response rating [2] | Kochia plant response rating (0 to 100 scale) (kochia (Kochia scoparia) [3]) | Kochia plant response rating (kochia (Kochia scoparia) [3]) | Pigweed plant response rating (0 to 100 scale) [4] | Pigweed plant response rating [4] | Ragweed plant response rating (0 to 100 scale) [5] | Ragweed plant response rating [5] | Ryegrass, Italian plant response rating (0 to 100 scale) [6] | Ryegrass, Italian plant response rating [6] | Barnyardgrass plant response rating ([7]; 125 g ai/ha) | Barnyardgrass plant response rating ([7]; 500 g ai/ha) | Blackgrass plant response rating ([8]; 125 g ai/ha) | Blackgrass plant response rating ([8]; 500 g ai/ha) | Corn plant response rating (corn (Zea mays); 125 g ai/ha) | Corn plant response rating (corn (Zea mays); 500 g ai/ha) | Foxtail, Giant plant response rating ([9]; 125 g ai/ha) | Foxtail, Giant plant response rating ([9]; 500 g ai/ha) | other results
1 | CC1=[N+]([O-])C(C(=O)Nc2cccc(F)c2F)C(c2ccccc2C)C1 (racemic) [Compound 11] | 80 | 100 | 90 | 100 | 0 | 0 | 0 | 0 | 40 | 30 | 0 | 0 | 40 | 90 | 0 | 0 | 0 | 0 | 30 | 90 | Galium plant response rating ([10]; 125 g ai/ha): 0; Galium plant response rating ([10]; 500 g ai/ha): 20; Kochia plant response rating (kochia (Kochia scoparia) [11]; 125 g ai/ha): 0; Kochia plant response rating (kochia (Kochia scoparia) [11]; 500 g ai/ha): 0; Pigweed plant response rating ([12]; 125 g ai/ha): 0; Pigweed plant response rating ([12]; 500 g ai/ha): 0; Ragweed plant response rating ([13]; 125 g ai/ha): 0; Ragweed plant response rating ([13]; 500 g ai/ha): 0; Ryegrass, Italian plant response rating ([14]; 125 g ai/ha): 0; Ryegrass, Italian plant response rating ([14]; 500 g ai/ha): 0; Wheat plant response rating ([15]; 125 g ai/ha): 0; Wheat plant response rating ([15]; 500 g ai/ha): 20; Ducksalad plant response rating (0 to 100 scale) [16]: 100; Barnyardgrass plant response rating (0 to 100 scale) [17]: 90; Rice plant response rating (0 to 100 scale) (rice (Oryza sativa)): 15
2 | CC1=[N+]([O-])C(C(=O)Nc2cccc(F)c2F)C(c2cccc(C(C)C)c2)C1 (racemic) [Compound 12] | 100 | 100 | 100 | 100 | 0 | 50 | 0 | 30 | 0 | 90 | 0 | 90 | 10 | 90 | 0 | 50 | 50 | 90 | 90 | 90 | Galium plant response rating ([10]; 125 g ai/ha): 50; Galium plant response rating ([10]; 500 g ai/ha): 70; Kochia plant response rating (kochia (Kochia scoparia) [11]; 125 g ai/ha): 0; Kochia plant response rating (kochia (Kochia scoparia) [11]; 500 g ai/ha): 30; Pigweed plant response rating ([12]; 125 g ai/ha): 0; Pigweed plant response rating ([12]; 500 g ai/ha): 20; Ragweed plant response rating ([13]; 125 g ai/ha): 0; Ragweed plant response rating ([13]; 500 g ai/ha): 40; Ryegrass, Italian plant response rating ([14]; 125 g ai/ha): 0; Ryegrass, Italian plant response rating ([14]; 500 g ai/ha): 50; Wheat plant response rating ([15]; 125 g ai/ha): 20; Wheat plant response rating ([15]; 500 g ai/ha): 70; Ducksalad plant response rating (0 to 100 scale) [16]: 80; Barnyardgrass plant response rating (0 to 100 scale) [17]: 70; Rice plant response rating (0 to 100 scale) (rice (Oryza sativa)): 0
